Measured values as given in patent US20240043859A1, “HERBICIDE-RESISTANT PROTEIN, AND GENE AND USE THEREOF” (QINGDAO KINGAGROOT CHEMICAL COMPOUND CO., LTD., priority 2020, published 2024).

System: soybean William82
Experiment: Spray testing of transgenic soybean T1 seedlings
Format: in vivo
Conditions: 4.48 kg/ha foliage spray, 10 days after spraying
Description: 1. Vector construction: the pQY2330 vector (see FIG. 8-1) was used as the overexpression vector, containing a Bar resistance gene that can be used as a selection marker for glufosinate. The AAD-like gene, QYD42, SEQ ID NO. 83, was linked to the Xho I restriction site by seamless cloning to construct the transgenic expression vector pQY2330, of which the expression cassette consisted of a double CaMV35S promoter, the AAD-like gene QYD42 and a […] Nos terminator.
2. Genetic transformation of soybeans: Soybean transformation was carried out using the Agrobacterium-mediated cotyledon nodes transformation method (Pareddy D, Chennareddy S, Anthony G, et al. Improved soybean transformation for efficient and high throughput transgenic production[J]. Transgenic Research, 2020, 29(968)). A monoclone of the Agrobacterium (EHA105) comprising the overexpression vector pQY2330 was inoculated into 5 ml YEP liquid medium (containing 25 mg/L Rifampicin and 50 mg/L Kanamycin) and shaking-cultured at 220 rmp/min, 28° C. for 8 hours. And then 0.2-0.3 ml bacteria solution was transferred to 200 ml YEP liquid medium (containing 25 mg/L Rifampicin and 50 mg/L Kanamycin) and shaking-cultured at 220 rmp/min, 28° C. overnight until the bacteria reached the exponential growth stage, then centrifuged at 4000 rmp/min for 20 min to collect the cells into a 50 ml centrifuge tube (sterilized). […]

Structure (SMILES): O=C(O)COc1ccc(Cl)cc1Cl [2,4-D, (2,4-dichlorophenoxy)acetic acid, reference compound]
- Effect of the herbicide spray on non-transgenic soybean William82: all non-transgenic recipient parents died and die
